Read-outs that look alike come from different tables or passages of the source.
What was measured:
Assay type in all cases: in vivo, human
[1] = Double-blind, placebo controlled, ascending single dose pharmacokinetic study of oral DPC 333 in healthy subjects; conditions: for half-life / Cmax / Tmax / AUC / AUC(0-inf) / concentration at 12 h: both sexes, human, plasma; for AUC: read-out: mean AUC from time zero to time infinity, range; for concentration at 12 h: read-out: C12 (plasma concentration at 12 hours) Mean
Description: (§1) The safety, tolerability, and pharmacokinetics of an oral dose form of DPC 333 were evaluated in a double-blind, placebo controlled, ascending single dose study in healthy male and female human subjects. Subjects in each cohort were randomized to receive either a single dose of DPC 333 (n=6) or placebo (n=2). Doses examined were 15, 25, 40, 80, 120, 225, 345, and 530 mg. Safety measurements included monitoring of AEs, standard clinical laboratory tests, ECGs, and vital sign measurements.
(§2) Blood samples were obtained pre-dose (0 hour) and 0.25, 0.5, 1, 1.5, 2, 2.5, 3, 4, 6, 8, 12, 18, 24, 36 and 48 hours post-dose administration. DPC 333 was quantified plasma extracts from these blood samples by a solid phase method followed by turbo ion spray liquid chromatography employing tandem mass spectroscopic detection (LC/MS/MS). The validated assay range for DPC 333 using 0.2 mL of plasma was 1.05 to 2098 nM. The assay was specific for DPC 333.
(§3) The following pharmacokinetic parameters for DPC 333 were assessed following a single dose administration of the DPC 333 oral dosage form to a subject: Cmax, Tmax, AUC, T1/2, Clo, and C12. Cmax is defined as the observed maximum plasma concentration. Tmax is defined as the time of observed maximum plasma concentration. AUC is defined as the area under the plasma concentration-time curve from time zero to time infinity; T1/2 is defined as the terminal disposition half-life.

[2] = Comparison of DPC 333 pharmacokinetics by gender in fasted subjects; conditions: for half-life / AUC(0-inf) / Cmax / Tmax: human, plasma, oral, 225 mg; for half-life: harmonic mean ± pseudo-standard deviation; for AUC(0-inf) / Cmax: mean ± SD; for Tmax: read-out: Tmax (median)
Description: as §2, §3
Differences in pharmacokinetics of DPC 333 based upon gender were also examined. The following table provides a comparison of DPC 333 pharmacokinetics by gender in fasted subjects receiving a single dose of 225 mg of DPC 333.

[3] = Safety and tolerability of single oral doses of DPC 333 (AEs, clinical laboratory tests, ECGs, vital signs)
Description: as §1

[4] = Double-blind, placebo controlled, ascending single dose pharmacokinetic study of oral DPC 333 in healthy subjects; conditions: single oral dose 80 mg, healthy volunteers, n = 12
[5] = Effect of food on pharmacokinetics of oral DPC 333, two period crossover study (fasted vs high-fat breakfast); conditions: for AUC(0-inf) / AUC(0-t) / Cmax: male, po, n = 6, mean ± SD
Description: as §2, §3
The effect of food on the safety, tolerability and pharmacokinetics of this oral dose form of DPC 333 was also examined in a randomized, open label, two period balanced crossover study in one cohort of male subjects. Each subject received a single oral 225 mg dose of DPC 333 on two occasions administered at least one week apart. On one occasion the dose was given in the fasted state and on the other occasion the dose was administered after a standard, high-fat breakfast meal. The following table provides pharmacokinetic data from this study.

[6] = single oral dose 15 mg, healthy volunteers, n = 6
[7] = single oral dose 25 mg, healthy volunteers, n = 6
[8] = single oral dose 40 mg, healthy volunteers, n = 6
[9] = single oral dose 80 mg, healthy volunteers, n = 12
[10] = single oral dose 120 mg, healthy volunteers, n = 6
[11] = single oral dose 225 mg, healthy volunteers, n = 6
[12] = single oral dose 345 mg, healthy volunteers, n = 6
[13] = single oral dose 530 mg, healthy volunteers, n = 6
[14] = female, Females (n = 6), Part 1: 225 mg (fasted)
[15] = male, Males (n = 6), Part 1: 225 mg (fasted)
[16] = male, Males (n = 6), Part 2: 225 mg (fasted)
[17] = administered with food compared to fasted state, 225 mg
[18] = fed/fasted, fasted treatment as the reference, 225 mg
[19] = human, plasma, 225 mg, Fasted, 225 mg single oral dose, male subjects
[20] = human, plasma, 225 mg, Fed (high-fat breakfast), 225 mg single oral dose, male subjects

SMILES: Cc1cc(COc2ccc([C@]3(N)CCN([C@H](CC(C)C)C(=O)NO)C3=O)cc2)c2ccccc2n1 [DPC 333, [1-(R)]-3-amino-N-hydroxy-alpha-(2-methylpropyl)-3-[4-[(2-methyl-4-quinolinyl)methoxy]phenyl]-2-oxo-1-pyrrolidineacetamide]
- increase in mean AUC (time zero to time infinity) with dose ([1]; at a single dose greater than 225 mg): greater than proportional increase
- increase in exposure (AUC) with dose ([1]; at the 345 mg and 530 mg doses): greater-than-proportional increase
- half-life ([1]; oral, for the higher doses, read-out: mean half-life estimates (converted)): ~6 h
- half-life ([1]; oral, single dose administrations ranging from 15 mg to 530 mg, read-out: mean terminal disposition half-life (T1/2)): 2 to 7 h
- Cmax ([1]; oral, single dose of 15 mg, read-out: mean maximum plasma concentration (Cmax), range): 0.088 to 0.18 µM
- Tmax ([1]; oral, single dose of 15 mg, read-out: mean time of maximum plasma concentration (Tmax), range): 0.5 to 1 h
- AUC ([1]; oral, single dose of 25 mg): 0.45 to 0.9 µM·h
- Cmax ([1]; oral, single dose of 25 mg, read-out: mean maximum plasma concentration (Cmax), range): 0.17 to 0.435 µM
- Tmax ([1]; oral, single dose of 25 mg, read-out: mean time of maximum plasma concentration (Tmax), range): 0.5 to 1 h
- AUC ([1]; oral, single dose of 40 mg): 0.93 to 1.43 µM·h
- Tmax ([1]; oral, single dose of 40 mg, read-out: mean time of maximum plasma concentration (Tmax), range): 0.25 to 1 h
- Cmax ([1]; oral, single dose of 40 mg, upper limit in μM, read-out: mean maximum plasma concentration (Cmax), range): 0.355 to 0.655 µM
- AUC ([1]; oral, single dose of 80 mg): 2.25 to 4.16 µM·h
- Tmax ([1]; oral, single dose of 80 mg, read-out: mean time of maximum plasma concentration (Tmax), range): 0.5 to 1 h
- Cmax ([1]; oral, single dose of 80 mg, upper limit in μM, read-out: mean maximum plasma concentration (Cmax), range): 0.965 to 1.87 µM
- AUC ([1]; oral, single dose of 120 mg): 3.33 to 6.21 µM·h
- Cmax ([1]; oral, single dose of 120 mg, read-out: mean maximum plasma concentration (Cmax), range): 1.54 to 2.35 µM
- Tmax ([1]; oral, single dose of 120 mg, read-out: mean time of maximum plasma concentration (Tmax), range): 0.5 to 1 h
- AUC ([1]; oral, single dose of 225 mg): 6.38 to 9.4 µM·h
- Tmax ([1]; oral, single dose of 225 mg, read-out: mean time of maximum plasma concentration (Tmax), range): 0.5 to 1 h
- Cmax ([1]; oral, single dose of 225 mg, upper limit in μM, read-out: mean maximum plasma concentration (Cmax), range): 2.62 to 3.65 µM
- AUC ([1]; oral, single dose of 345 mg): 18.4 to 28.8 µM·h
- Cmax ([1]; oral, single dose of 345 mg, read-out: mean maximum plasma concentration (Cmax), range): 6.58 to 15.4 µM
- Tmax ([1]; oral, single dose of 345 mg, read-out: mean time of maximum plasma concentration (Tmax), range): 0.25 to 1 h
- AUC ([1]; oral, single dose of 530 mg): 22 to 39.5 µM·h
- Cmax ([1]; oral, single dose of 530 mg, read-out: mean maximum plasma concentration (Cmax), range): 9.45 to 18.1 µM
- Tmax ([1]; oral, single dose of 530 mg, read-out: mean time of maximum plasma concentration (Tmax), range): 0.5 to 1 h
- half-life ([1]; po, 15 mg, single oral dose 15 mg, healthy volunteers, n = 6, read-out: T½ Mean (harmonic mean) (converted)): 2.18 h
- half-life ([1]; po, 25 mg, single oral dose 25 mg, healthy volunteers, n = 6, read-out: T½ Mean (harmonic mean) (converted)): 2.86 h
- half-life ([1]; po, 40 mg, single oral dose 40 mg, healthy volunteers, n = 6, read-out: T½ Mean (harmonic mean) (converted)): 3.41 h
- half-life ([1]; po, 80 mg, single oral dose 80 mg, healthy volunteers, n = 12, read-out: T½ Mean (harmonic mean) (converted)): 4.05 h
- half-life ([1]; po, 120 mg, single oral dose 120 mg, healthy volunteers, n = 6, read-out: T½ Mean (harmonic mean) (converted)): 4.89 h
- half-life ([1]; po, 225 mg, single oral dose 225 mg, healthy volunteers, n = 6, read-out: T½ Mean (harmonic mean) (converted)): 5.53 h
- half-life ([1]; po, 345 mg, single oral dose 345 mg, healthy volunteers, n = 6, read-out: T½ Mean (harmonic mean) (converted)): 6.39 h
- half-life ([1]; po, 530 mg, single oral dose 530 mg, healthy volunteers, n = 6, read-out: T½ Mean (harmonic mean) (converted)): 6.04 h
- Tmax ([1]; oral administration, post dose, doses 15 to 530 mg, read-out: Tmax values): < 1 h
- AUC(0-inf) [1, 6]: 0.342 µM·h
- concentration at 12 h [1, 6]: 2.09 nM
- Cmax ([1]; single oral dose 15 mg, healthy volunteers, n = 6, read-out: Cmax Mean): 0.134 µM
- Tmax ([1]; single oral dose 15 mg, healthy volunteers, n = 6, read-out: Tmax Median): 0.75 h
- AUC(0-inf) [1, 7]: 0.676 µM·h
- concentration at 12 h [1, 7]: 4.41 nM
- Cmax ([1]; single oral dose 25 mg, healthy volunteers, n = 6, read-out: Cmax Mean): 0.303 µM
- Tmax ([1]; single oral dose 25 mg, healthy volunteers, n = 6, read-out: Tmax Median): 0.5 h
- AUC(0-inf) [1, 8]: 1.18 µM·h
- concentration at 12 h [1, 8]: 6.36 nM
- Cmax ([1]; single oral dose 40 mg, healthy volunteers, n = 6, read-out: Cmax Mean): 0.505 µM
- Tmax ([1]; single oral dose 40 mg, healthy volunteers, n = 6, read-out: Tmax Median): 0.5 h
- AUC(0-inf) [1, 9]: 3.2 µM·h
- concentration at 12 h [1, 9]: 20.4 nM
- Cmax ([1]; single oral dose 80 mg, healthy volunteers, n = 12, read-out: Cmax Mean): 1.42 µM
- Tmax ([1]; single oral dose 80 mg, healthy volunteers, n = 12, read-out: Tmax Median): 0.5 h
- AUC(0-inf) [1, 10]: 4.77 µM·h
- concentration at 12 h [1, 10]: 30.3 nM
- Cmax ([1]; single oral dose 120 mg, healthy volunteers, n = 6, read-out: Cmax Mean): 1.94 µM
- Tmax ([1]; single oral dose 120 mg, healthy volunteers, n = 6, read-out: Tmax Median): 0.5 h
- AUC(0-inf) [1, 11]: 7.89 µM·h
- concentration at 12 h [1, 11]: 49 nM
- Cmax ([1]; single oral dose 225 mg, healthy volunteers, n = 6, read-out: Cmax Mean): 3.14 µM
- Tmax ([1]; single oral dose 225 mg, healthy volunteers, n = 6, read-out: Tmax Median): 0.75 h
- AUC(0-inf) [1, 12]: 23.6 µM·h
- concentration at 12 h [1, 12]: 153 nM
- Cmax ([1]; single oral dose 345 mg, healthy volunteers, n = 6, read-out: Cmax Mean): 11 µM
- Tmax ([1]; single oral dose 345 mg, healthy volunteers, n = 6, read-out: Tmax Median): 0.75 h
- AUC(0-inf) [1, 13]: 30.8 µM·h
- concentration at 12 h [1, 13]: 167 nM
- Cmax ([1]; single oral dose 530 mg, healthy volunteers, n = 6, read-out: Cmax Mean): 13.8 µM
- Tmax ([1]; single oral dose 530 mg, healthy volunteers, n = 6, read-out: Tmax Median): 0.5 h
- CLo (apparent oral clearance) Mean [1, 6]: 98.0 L/h
- CLo (apparent oral clearance) Mean [1, 7]: 85.7 L/h
- CLo (apparent oral clearance) Mean [1, 8]: 74.5 L/h
- CLo (apparent oral clearance) Mean [1, 10]: 56.0 L/h
- CLo (apparent oral clearance) Mean [1, 11]: 61.6 L/h
- CLo (apparent oral clearance) Mean [1, 12]: 32.0 L/h
- CLo (apparent oral clearance) Mean [1, 13]: 38.6 L/h
- oral absorption ([1]; upon oral administration): rapidly and well absorbed
- differences in pharmacokinetics due to gender ([2]; fasted subjects, single dose of 225 mg): No apparent differences
- half-life [2, 14]: 5.93 ± 0.66 h
- AUC(0-inf) [2, 14]: 11.4 ± 2.17 µM·h
- Cmax [2, 14]: 6650 ± 1750 nM
- Tmax [2, 14]: 0.51 h
- half-life [2, 15]: 5.53 ± 0.88 h
- AUC(0-inf) [2, 15]: 7.89 ± 1.51 µM·h
- Cmax [2, 15]: 3140 ± 511 nM
- Tmax [2, 15]: 0.75 h
- half-life [2, 16]: 6.19 ± 1.21 h
- AUC(0-inf) [2, 16]: 12.5 ± 2.79 µM·h
- Cmax [2, 16]: 5700 ± 1420 nM
- Tmax [2, 16]: 0.5 h
- dose-related trends in safety parameters ([3]; all safety parameters measured, doses 15 to 530 mg): no dose-related mean trends observed
- discontinuations because of an AE / serious AEs ([3]; doses 15 to 530 mg): no discontinuations because of an AE nor any serious AEs reported
- criteria for an intolerable dose ([3]; doses evaluated, 15 to 530 mg): criteria for an intolerable dose were not achieved
- tolerability ([3]; oral dose form, healthy volunteers): well tolerates
- CLo (apparent oral clearance) Mean [4]: 57.3 L/h
- decrease in AUC with food [5, 17]: about 23%
- decrease in Cmax with food [5, 17]: about 40%
- AUC (0-t) Geometric Mean Ratio [5, 18]: 0.767
- AUC (0-∞) Geometric Mean Ratio [5, 18]: 0.767
- Cmax Geometric Mean Ratio [5, 18]: 0.597
- Tmax ([5]; human, plasma, Fasted, 225 mg single oral dose, male subjects, n = 6, read-out: Tmax (median)): 0.5 h
- AUC(0-inf) [5, 19]: 12.5 ± 2.79 µM·h
- AUC(0-t) [5, 19]: 12.4 ± 2.79 µM·h
- Cmax [5, 19]: 5700 ± 1420 nM
- AUC(0-inf) [5, 20]: 9.49 ± 1.71 µM·h
- AUC(0-t) [5, 20]: 9.48 ± 1.71 µM·h
- Cmax [5, 20]: 3410 ± 832 nM
